For one data set, the system named is Maize cv CLAXXON. The experiment in a line: Safening on corn, general crop injury. The following applies: 200 g ai/ha (with safener 200 + 200), sprayed at 3-leaf stage, 100% total damage, 0% no damage. Type of data set: in vivo. On the procedure: (§1) Maize seeds were sown into standard soil in pots and cultivated under controlled conditions in a glasshouse (at 24/18° C. day/night; 16 hours light; 65% humidity).
(§2) When the plants were at the vegetative stage of 3 leaves they were sprayed with an aqueous spray solution containing the components of the invention alone and where appropriate the herbicide safener (N-(2-methoxybenzoyl)-4-[(methylaminocarbonyl)amino]benzenesulfonamide). All the compounds used for the spray solution were present as an EC or SC formulation respectively. In addition a non-ionic surfactant (X-77 Spreader) was added to form a 0.2% v/v solution.
(§3) The spray solution was applied with a cabinet tracksprayer with a flat fan nozzle (Teejet 11002VS) and an application volume of 200 L/ha (at 2 bar).
(§4) The test plants were then grown on in a glasshouse under controlled conditions (at 24/18° C. day/night; 16 hours light; 65% humidity) and watered twice a day. After 7 and 17 days the test was evaluated for general crop injury (100% equals total damage to plant; 0% equals no damage to plant).

Another data set concerns Maize cv GARLAND. The data set can be described thus: Safening on corn, general crop injury. The class given is in vivo. The note with it: 200 g ai/ha (with safener 200 + 200), sprayed at 3-leaf stage, 100% total damage, 0% no damage. On the procedure:
as §1, §2, §3, §4

The subject of data set [1] is Echinochloa crus-galli (ECHCG). The data set can be described thus: Post-emergence biological efficacy, glasshouse pot test. The following applies: 312 h, 1,000 g/ha, post-emergence (sprayed after 8 days), evaluated after 13 days, 100=total damage, 0=no damage, read-out: Percentage damage caused to weed species, post-emergence, ECHCG. The class given is in vivo. The protocol: (§5) Seeds of Alopecurus myosuroides (ALOMY), Setaria faberi (SETFA), Echinochloa crus-galli (ECHCG), Solanum nigrum (SOLNI), Amaranthus retroflexus (AMARE) and Ipomoea hederaceae (IPOHE) were sown in standard soil in pots. After cultivation for 8 days under controlled conditions in a glasshouse (at 24/16° C., day/night; 14 hours light; 65% humidity), the plants were sprayed with an aqueous spray solution derived from the formulation of the technical active ingredient in acetone/water (50:50) solution containing 0.5% Tween 20 (polyoxyethylene sorbitan monolaurate, CAS RN 9005-64-5) to give a final dose of 1000 g/ha of test compound.
(§6) The test plants were then grown on under controlled conditions in a glasshouse (at 24/16° C., day/night; 14 hours light; 65% humidity) and watered twice daily. After 13 days the test was evaluated (100=total damage to plant; 0=no damage to plant).

In data set [2] the test system is Ipomoea hederaceae (IPOHE). The description is as above. Type of data set: in vivo. The following applies: 312 h, 1,000 g/ha, post-emergence (sprayed after 8 days), evaluated after 13 days, 100=total damage, 0=no damage, read-out: Percentage damage caused to weed species, post-emergence, IPOHE. The protocol: as §5, §6
Data set [3] deals with Amaranthus retroflexus (AMARE). The description is as above. Type of data set: in vivo. The following applies: 312 h, 1,000 g/ha, post-emergence (sprayed after 8 days), evaluated after 13 days, 100=total damage, 0=no damage, read-out: Percentage damage caused to weed species, post-emergence, AMARE. On the procedure: as §5, §6
Data set [4] concerns Alopecurus myosuroides (ALOMY). Described as above. Type of data set: in vivo. The note with it: 312 h, 1,000 g/ha, post-emergence (sprayed after 8 days), evaluated after 13 days, 100=total damage, 0=no damage, read-out: Percentage damage caused to weed species, post-emergence, ALOMY. The protocol: as §5, §6
Data set [5] has as its system Solanum nigrum (SOLNI). The description is as above. Type of data set: in vivo. The note with it: 312 h, 1,000 g/ha, post-emergence (sprayed after 8 days), evaluated after 13 days, 100=total damage, 0=no damage, read-out: Percentage damage caused to weed species, post-emergence, SOLNI. On the procedure: as §5, §6
The test system of data set [6] is Setaria faberi (SETFA). Described as above. The class given is in vivo. The note with it: 312 h, 1,000 g/ha, post-emergence (sprayed after 8 days), evaluated after 13 days, 100=total damage, 0=no damage, read-out: Percentage damage caused to weed species, post-emergence, SETFA. The protocol:
as §5, §6

In data set [7] the test system is Echinochloa crus-galli (ECHCG). The experiment in a line: Pre-emergence biological efficacy, glasshouse pot test. Type of data set: in vivo. The following applies: 312 h, 1,000 g/ha, evaluated after 13 days, 100=total damage, 0=no damage, read-out: Percentage damage caused to weed species, pre-emergence, ECHCG. On the procedure:
as §5, with “one day” for “8 days”
(§7) The test plants were then grown under controlled conditions in the glasshouse (at 24/16° C., day/night; 14 hours light; 65% humidity) and watered twice daily. After 13 days the test was evaluated (100=total damage to plant; 0=no damage to plant).

Data set [8] relates to Ipomoea hederaceae (IPOHE). Described as above. Type of data set: in vivo. The following applies: 312 h, 1,000 g/ha, evaluated after 13 days, 100=total damage, 0=no damage, read-out: Percentage damage caused to weed species, pre-emergence, IPOHE. On the procedure:
as §5, with “one day” for “8 days”
as §7

The subject of data set [9] is Amaranthus retroflexus (AMARE). Described as above. Type of data set: in vivo. The note with it: 312 h, 1,000 g/ha, evaluated after 13 days, 100=total damage, 0=no damage, read-out: Percentage damage caused to weed species, pre-emergence, AMARE. The protocol:
as §5, with “one day” for “8 days”
as §7

In data set [10] the test system is Alopecurus myosuroides (ALOMY). The data set is described as above. The class given is in vivo. The note with it: 312 h, 1,000 g/ha, evaluated after 13 days, 100=total damage, 0=no damage, read-out: Percentage damage caused to weed species, pre-emergence, ALOMY. On the procedure: as §5, with “one day” for “8 days”
as §7

Data set [11] deals with Solanum nigrum (SOLNI). Described as above. The class given is in vivo. The note with it: 312 h, 1,000 g/ha, evaluated after 13 days, 100=total damage, 0=no damage, read-out: Percentage damage caused to weed species, pre-emergence, SOLNI. On the procedure: as §5, with “one day” for “8 days”
as §7

Data set [12] has as its system Setaria faberi (SETFA). The description is as above. The class given is in vivo. The note with it: 312 h, 1,000 g/ha, evaluated after 13 days, 100=total damage, 0=no damage, read-out: Percentage damage caused to weed species, pre-emergence, SETFA. On the procedure:
as §5, with “one day” for “8 days”
as §7

This note sets out measurements from patent publication US20130065757A1, “CHEMICAL COMPOUNDS” (Syngenta Limited, priority 2010, published 2013).

For orientation: melting point means the temperature, or range, at which the solid turns liquid.

Molecules are shown by their SMILES.

Take `C=Cc1c(N)cc(Cl)nc1C(=O)O` [Compound 1-4, 4-amino-6-chloro-3-ethenyl-pyridine-2-carboxylic acid]: the melting point is 141 to 146 °C (dec.). In addition, in the data set on Maize cv CLAXXON, the “Percentage damage caused to corn, Maize cv CLAXXON, 7 days after application” value came out at 60% and the “Percentage damage caused to corn, Maize cv CLAXXON, 17 days after application” value was found to be 50%. For the same molecule, in the data set on Maize cv GARLAND, the “Percentage damage caused to corn, Maize cv GARLAND, 7 days after application” value is recorded as 60% and the “Percentage damage caused to corn, Maize cv GARLAND, 17 days after application” value turned out to be 65%. The pest or weed control at 1000 g/ha in data set [1] amounted to 80%. The pest or weed control at 1000 g/ha in data set [2] was found to be 70%. In addition, the pest or weed control at 1000 g/ha in [3] turned out to be 100%. Besides, the pest or weed control at 1000 g/ha in data set [4] was determined as 80%. Also, in the data set with Solanum nigrum (SOLNI) [5], the pest or weed control at 1000 g/ha amounted to 100%. For the same molecule, the pest or weed control at 1000 g/ha in the data set with Setaria faberi (SETFA) [6] was found to be 100%. The pest or weed control at 1000 g/ha in data set [7] amounted to 90%. The pest or weed control at 1000 g/ha in data set [8] came to 100%. Moreover, the pest or weed control at 1000 g/ha in [9] was 100%. Moreover, the pest or weed control at 1000 g/ha in data set [10] stood at 90%. The pest or weed control at 1000 g/ha in the data set with Solanum nigrum (SOLNI) [11] came out at 100%. Besides, the pest or weed control at 1000 g/ha with Setaria faberi (SETFA) [12] is 100%.
Consider `C=Cc1c(C(=O)O)nc(Cl)c(F)c1N` [Compound 1-12, 4-Amino-6-chloro-3-ethenyl-5-fluoro-pyridine-2-carboxylic acid], for which, in the data set on Maize cv CLAXXON, the “Percentage damage caused to corn, Maize cv CLAXXON, 7 days after application” value amounted to 60%. The “Percentage damage caused to corn, Maize cv CLAXXON, 17 days after application” value with Maize cv CLAXXON is listed as 50%. In addition, in the data set on Maize cv GARLAND, the “Percentage damage caused to corn, Maize cv GARLAND, 7 days after application” value came to 60%. Also, the “Percentage damage caused to corn, Maize cv GARLAND, 17 days after application” value in the data set with Maize cv GARLAND stood at 50%. For the same molecule, the pest or weed control at 1000 g/ha in data set [1] stood at 90%; in data set [2], 100%; in data set [3], 100%; in data set [4], 90%; in the data set with Solanum nigrum (SOLNI) [5], 90%; in the data set with Setaria faberi (SETFA) [6], 90%. Further, the pest or weed control at 1000 g/ha in data set [7] was 90%; in [8], 100%; in data set [9], 100%; in data set [10], 90%; in the data set on Solanum nigrum (SOLNI) [11], 100%; with Setaria faberi (SETFA) [12], 100%.
